Experimental data: US6413937B1, “Combinations for use in increasing the potency of a substrate for multidrug resistance related protein” (Dublin City University and Enterprise Ireland, priority 1996, dated 2002)

How the values were obtained:
DLKP cell line = assay: miniaturised in vitro colorimetric cell survival assay (acid phosphatase end-point), DLKP; type: cell-based, human
Protocol: (§1) All the results presented in this Example for the DLKP, A549 and OAW42-SR cell lines were derived using the same miniaturised in vitro calorimetric assay system. On Day 1 of the assay 1000 cells/well/100 μl were plated into 96-well plates. Cells were allowed to attach overnight and cell viability was visually assessed. […] NSAID plus chemotherapeutic drug) to be analysed were added onto the cells. The individual drugs were added separately in 50 μl quantities (4× stocks, to take into account the dilution effect of having 200 μl final volume in each well). The drugs were left on the cells for five further days (Day 7) and cell number was determined using the acid phosphatase end-point assay which uses p-nitrophenol phosphate as substrate (Martin, A. and Clynes, M. (1991) In Vitro Dev. Biol., 27A, 183-184). On Day 7 the culture medium was removed from the cells and they were washed once with phosphate buffered saline (PBS). […] After the incubation period 50 μl of 1N NaOH was added to each well to develop the colour. The plates were then read at 405 nm (reference 620 nm) on an ELISA plate-reader. […] All results are the cell survival means ±S.D. from a minimum of three experiments.

HL-60ADR cells = assay: etoposide-induced apoptosis (nuclear fragmentation), HL-60ADR; type: cell-based; conditions: HL-60ADR (resistant); etoposide alone or co-treated with sulindac; FIG. 1
Protocol: An experiment was carried out to determine the effect of the NSAID sulindac on etoposide-induced apoptosis in two cell lines, namely HL-60S and HL-60ADR. These cell lines were donated by Dr. Melvin Center, Kansas State University, Manhattan Kans. 66506, U.S.A. For the HL-60S and ADR cell lines the percentage of apoptotic cells within the cell population, following drug exposure, was used to quantify toxicity. Cells were plated in fresh medium at a concentration of 10^6 cells/ml in a 24-well plate (Greiner) and drugs were then added to the wells. A 200 μl sample from each well was taken after 4 and 8 hrs. Samples were cytospun for 2 min at 500 rpm using a Shandon Cytofuge3. After air-drying the cytospins were stained using a Romanowsky staining kit, Rappi-Diff II (Langanbach), dried and mounted in DPX (BDH). Slides were studied on an Optiphot microscope (Nikon) fitted with a 40× objective, and visualised on a monitor via a Mitsubishi CCD-100E colour CCD-camera and a 0.6× relay lens. Nuclear fragmentation was used as a morphological marker for apoptosis and a minimum of 200 cells were assessed in at least three different microscopic fields. Results were expressed as the percentage of apoptotic cells within the population. Each experiment was repeated in duplicate.

DLKP-A cell line = assay: miniaturised in vitro colorimetric cell survival assay, P-170 overexpressing DLKP-A; type: cell-based, human; conditions: v) Vincristine 1.0 μg/ml alone
Protocol: All the results presented in this Example for the DLKP, A549 and OAW42-SR cell lines were derived using the same miniaturised in vitro calorimetric assay system. On Day 1 of the assay 1000 cells/well/100 μl were plated into 96-well plates. Cells were allowed to attach overnight and cell viability was visually assessed. On Day 2 the two drugs (i.e. NSAID plus chemotherapeutic drug) to be analysed were added onto the cells. The individual drugs were added separately in 50 μl quantities (4× stocks, to take into account the dilution effect of having 200 μl final volume in each well). The drugs were left on the cells for five further days (Day 7) and cell number was determined using the acid phosphatase end-point assay which uses p-nitrophenol phosphate as substrate (Martin, A. and Clynes, M. (1991) In Vitro Dev. Biol., 27A, 183-184). On Day 7 the culture medium was removed from the cells and they were washed once with phosphate buffered saline (PBS). After washing, 100 μl of freshly prepared substrate-containing buffer (0.1% Triton X-100 in 0.1M sodium acetate, pH 5.5) was added to each well and the plates were left in an incubator at 37° C. for 2 h. After the incubation period 50 μl of 1N NaOH was added to each well to develop the colour. The plates were then read at 405 nm (reference 620 nm) on an ELISA plate-reader.
In the results given below the % cell survival in the drug-free control is 100%. All results are the cell survival means ±S.D. from a minimum of three experiments.
v) is an example of a positive NSAID plus a positive drug on a P-170 overexpressing cell line: DLKP-A;

A549 cell line = assay: miniaturised in vitro colorimetric cell survival assay (acid phosphatase end-point), A549; type: cell-based, human; conditions: for % cell survival: alone or + Adriamycin 20 ng/ml
Protocol: as §1

OAW42-SR cell line = assay: miniaturised in vitro colorimetric cell survival assay, LRP overexpressing OAW42-SR; type: cell-based, human; conditions: vi) Adriamycin 147 ng/ml alone
Protocol: All the results presented in this Example for the DLKP, A549 and OAW42-SR cell lines were derived using the same miniaturised in vitro calorimetric assay system. On Day 1 of the assay 1000 cells/well/100 μl were plated into 96-well plates. Cells were allowed to attach overnight and cell viability was visually assessed. On Day 2 the two drugs (i.e. NSAID plus chemotherapeutic drug) to be analysed were added onto the cells. The individual drugs were added separately in 50 μl quantities (4× stocks, to take into account the dilution effect of having 200 μl final volume in each well). The drugs were left on the cells for five further days (Day 7) and cell number was determined using the acid phosphatase end-point assay which uses p-nitrophenol phosphate as substrate (Martin, A. and Clynes, M. (1991) In Vitro Dev. Biol., 27A, 183-184). On Day 7 the culture medium was removed from the cells and they were washed once with phosphate buffered saline (PBS). […] After the incubation period 50 μl of 1N NaOH was added to each well to develop the colour. The plates were then read at 405 nm (reference 620 nm) on an ELISA plate-reader. […] All results are the cell survival means ±S.D. from a minimum of three experiments.

SP2 mouse myeloma cells = assay: mouse tumour model, survival of Balb/c mice injected with SP2 cells; type: in vivo; conditions: groups of 8 Balb/c mice; i.p. once a day, five days a week; adriamycin 0.25 mg/kg, tolmetin 70 mg/kg; after 32 days
Protocol: The in vivo relevance of our findings was studied using a mouse tumour model. SP2 tumour cells were injected into 4 groups of mice. Groups of 8 male Balb/c mice 8 weeks old were maintained on normal diets. Animals were injected with 2 million SP2 mouse myeloma cells on day 1. On day 3 intraperitoneal injection with adriamycin, tolmetin or a combination of the two was begun. This continued once a day, five days a week for a total of 32 days. The agents were dissolved in PBS and prepared freshly twice per week. The animals were weighed and the average weight of the group was used to calculate the required concentration of the drugs. Adriamycin was administered to give a final concentration of 0.25 mg/kg, the tolmetin dose was 70 mg/kg. […] The results were expressed as the number of animals alive each day as a percentage of the original number of animals alive.
Group 1 received injections of the vehicle (PBS) alone, group 2, adriamycin at 0.25 mg/kg, group 3, tolmetin at 70 mg/kg and group 4 received both agents (adriamycin, 0.25 mg/kg and tolmetin, 70 mg/kg). After 32 days there were clear differences in the % survival between the groups (FIG. 5). […] Two mice remained in the adriamycin group but 5 survived to the end of the experiment from the combination group (group 4).

COR L23 R (MRP+) cells = conditions: doxorubicin 10 mg/ml alone or with sulindac 20 mg/ml, 1, 2, 4 h, FIG. 3
Protocol: (§2) 10^6 COR L23 P (parental non-MRP resistant, MRP−) or COR L23 R (MRP resistant, MRP+) cells were added to 75 cm^3 vented flasks containing HEPES buffered Rosemount Park Memorial Institute (RPMI) medium and maintained at 37° C. in a 5% CO2 atmosphere. […] After three days of growth, doxorubicin (final concentration 10 mg/ml), sulindac (final concentration 20 mg/ml) or doxorubicin and sulindac were added to individual flasks. Samples were taken after 1, 2 and 4 h. and assayed for drug content.
(§3) The contents of each flask were washed twice with 5 ml of PBS and stored at −70° C. The flasks were thawed and 100 μl of water and 100 μl of 33% silver nitrate added to each and mixed for 5 min. […]
(§4) The extract was resuspended in 50 μl of methanol in the sample vial and loaded into the HPLC autosampler. […] The mobile phases were pumped through a C18 reversed-phase Ultrasphere XL (Beckman) HPLC column (4.6×70 mm) with absorbance measured at 253 nm. […] The amount of doxorubicin and sulindac present was quantified by measuring the peak height of these drugs and the internal standard. […] The concentration of doxorubicin in the samples was calculated from the) nd development standard line using the peak height ratio. The sulindac concentrations were calculated by the same method.

[1] = system: COR L23 P (non-MRP) cells; conditions: doxorubicin 10 mg/ml alone or with sulindac 20 mg/ml, 1, 2, 4 h, FIG. 4
Protocol: as §2, §3, §4

MRP pump = molecular target: T1, MRP pump (Homo sapiens, UniProt P33527); assay: ATP-dependent transport of [3H]LTC4 into inside-out plasma membrane vesicles from HL60ADR cells; type: biochemical
T1 construct: inside-out plasma membrane vesicles prepared from HL60ADR cells; endogenous in cells; host or cells: HL60ADR cells (plasma membrane vesicles)
T1 sequence (P33527 whole entry): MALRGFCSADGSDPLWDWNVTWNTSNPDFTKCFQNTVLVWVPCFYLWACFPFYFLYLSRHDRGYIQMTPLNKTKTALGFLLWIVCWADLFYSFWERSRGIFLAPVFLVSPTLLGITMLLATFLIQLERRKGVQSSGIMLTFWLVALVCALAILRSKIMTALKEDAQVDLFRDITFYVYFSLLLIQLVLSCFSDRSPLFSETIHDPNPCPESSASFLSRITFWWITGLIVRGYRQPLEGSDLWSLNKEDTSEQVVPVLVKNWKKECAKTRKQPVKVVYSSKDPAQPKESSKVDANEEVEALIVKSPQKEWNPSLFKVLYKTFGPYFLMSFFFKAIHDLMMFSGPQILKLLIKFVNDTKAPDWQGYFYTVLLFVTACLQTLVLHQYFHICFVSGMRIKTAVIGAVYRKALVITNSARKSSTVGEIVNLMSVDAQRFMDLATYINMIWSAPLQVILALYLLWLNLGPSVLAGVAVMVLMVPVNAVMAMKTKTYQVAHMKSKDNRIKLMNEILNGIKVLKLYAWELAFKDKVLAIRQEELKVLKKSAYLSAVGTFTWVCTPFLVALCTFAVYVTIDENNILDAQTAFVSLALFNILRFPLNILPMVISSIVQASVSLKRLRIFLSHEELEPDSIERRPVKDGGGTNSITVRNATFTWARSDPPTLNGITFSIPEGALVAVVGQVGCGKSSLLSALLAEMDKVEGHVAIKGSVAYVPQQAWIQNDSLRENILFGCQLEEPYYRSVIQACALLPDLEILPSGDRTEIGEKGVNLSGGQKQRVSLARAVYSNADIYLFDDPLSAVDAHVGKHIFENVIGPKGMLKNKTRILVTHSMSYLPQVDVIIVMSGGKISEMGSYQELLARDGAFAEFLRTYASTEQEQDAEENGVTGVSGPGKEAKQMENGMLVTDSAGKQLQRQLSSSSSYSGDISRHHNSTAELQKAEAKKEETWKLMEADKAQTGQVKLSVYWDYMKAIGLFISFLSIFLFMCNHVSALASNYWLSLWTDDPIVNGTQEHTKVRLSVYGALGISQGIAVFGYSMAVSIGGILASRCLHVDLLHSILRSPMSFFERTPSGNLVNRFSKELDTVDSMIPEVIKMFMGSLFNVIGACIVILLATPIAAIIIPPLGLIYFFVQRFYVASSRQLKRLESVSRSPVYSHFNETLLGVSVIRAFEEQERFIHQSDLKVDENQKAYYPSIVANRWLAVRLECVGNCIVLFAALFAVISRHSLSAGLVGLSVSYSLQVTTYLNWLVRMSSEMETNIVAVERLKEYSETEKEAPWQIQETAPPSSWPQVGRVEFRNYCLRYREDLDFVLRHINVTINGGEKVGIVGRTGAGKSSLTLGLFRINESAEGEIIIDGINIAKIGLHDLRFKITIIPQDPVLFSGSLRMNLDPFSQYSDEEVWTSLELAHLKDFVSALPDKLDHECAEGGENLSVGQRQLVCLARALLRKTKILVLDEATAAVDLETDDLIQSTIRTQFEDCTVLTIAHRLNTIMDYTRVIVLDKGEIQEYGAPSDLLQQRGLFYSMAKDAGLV
Protocol: To determine if the NSAIDs were acting directly on the MRP pump the uptake of [^3H]LTC4 into inside-out plasma membrane vesicles prepared from HL60ADR cells was examined using a rapid filtration procedure (Ishikawa,T., et al. (1994); J. Biol. Chem. 269 (46); 29085-29093). ATP-dependent transport of [^3H]LTC4 into the membrane vesicles was measured by a rapid filtration method using a Millipore sampling manifold. The membrane vesicles were thawed at 37° C. before use and kept on ice. The reaction components consisted of 0.25 M sucrose/10 mM Tris.HCl pH 7.4/1 mM ATP/10 mM MgCl2/10 mM creatine phosphate/ 110 μg/ml creatine kinase and 10 nM [^3H]LTC4, with 50 μg of the inside-out vesicle preparation, in a final volume of 110 μl. This suspension was incubated at 37° C., with gentle mixing, and aliquots, 20 μl, were taken at the indicated points. Those aliquots were diluted in 1 ml of ice-cold incubation buffer before being applied to 0.22 μm Millipore GSWP nitrocellulose filters, pre-soaked in ice-cold incubation buffer, under suction. The filters were subsequently washed with 3 ml ice-cold incubation buffer, and absorbed radioactivity was measured using a scintillation counter (Beckman). In control experiments ATP was replaced with 5μ-AMP to determine the ATP-dependent transport.

[2] = system: GST prepared from DLKP cells; assay: total GST assay with 1-chloro-2,4-dinitrobenzene; type: biochemical, human; conditions: 0.4 mM
Protocol: The other NSAIDs were tested in a total GST assay (Habig, W. H., and Jakoby, W. B., (1981); Methods Enzymol., 77: 218-231). Total cellular GST activity was assayed, using 1-chloro-2,4-dinitrobenzene as a substrate, according to the method of Habig, W. H., and Jakoby, W. B., (1981); supra. Due to spectrophotometric interference at 340 nm, caused by the majority of the NSAIDs, the assays were all performed at 360 nm, without any apparent effect on the rate of the control reaction The results are shown in Table 5.

MRP-specific substrates = assay: screen for enhancement of toxicity of MRP substrates by NSAIDs; type: cell-based; conditions: summary statements

What does the source list for COc1cc([C@@H]2c3cc4c(cc3[C@@H](O[C@@H]3O[C@@H]5CO[C@@H](C)O[C@H]5[C@H](O)[C@H]3O)[C@H]3COC(=O)[C@H]23)OCO4)cc(OC)c1O [VP-16, etoposide]?
% cell survival (DLKP cell line; iii) VP-16 100 ng/ml alone): 63.46 ± 1.4%; etoposide-induced apoptosis, percentage of apoptotic cells (HL-60ADR cells): only a basal level of apoptosis is seen

What does the source list for CC[C@]1(O)C[C@H]2CN(CCc3c([nH]c4ccccc34)[C@@](C(=O)OC)(c3cc4c(cc3OC)N(C=O)[C@H]3[C@@](O)(C(=O)OC)[C@H](OC(C)=O)[C@]5(CC)C=CCN6CC[C@]43[C@@H]65)C2)C1 [Vincristine, vincristine]?
% cell survival (DLKP cell line; ii) Vincristine 1.0 ng/ml alone): 72.98 ± 3.5%; % cell survival (DLKP-A cell line): 89.12 ± 1.3%

Which “% cell survival” value (DLKP cell line; i) Adriamycin 10 ng/ml alone) does the source give for COc1cccc2c1C(=O)c1c(O)c3c(c(O)c1C2=O)C[C@@](O)(C(=O)CO)C[C@@H]3O[C@H]1C[C@H](N)[C@H](O)[C@H](C)O1 [Adriamycin, adriamycin] here?
The value was 60.35 ± 3.2%.

What about the viability at 0.04 µg/mL (A549 cell line; Homo sapiens, A549, 120 h, ix) Adriamycin 40 ng/ml alone) of the same molecule?
Its viability at 0.04 µg/mL is 54 ± 6.05%.

What about the viability at 0.015 µg/mL (A549 cell line; Homo sapiens, A549, 120 h, viii) Adriamycin 15 ng/ml alone) of the same molecule?
Its viability at 0.015 µg/mL is 61 ± 5.05%.

And the viability at 0.015 µg/mL (A549 cell line; Homo sapiens, A549, 120 h, x) Adriamycin 15 ng/ml alone)?
Its viability at 0.015 µg/mL is 47 ± 5.15%.

And the viability at 0.04 µg/mL (A549 cell line; Homo sapiens, A549, 120 h, xi) Adriamycin 40 ng/ml alone)?
Its viability at 0.04 µg/mL is 46 ± 5.05%.

What about the viability at 0.015 µg/mL (A549 cell line; Homo sapiens, A549, 120 h, xii) Adriamycin 15 ng/ml alone) of the same molecule?
The viability at 0.015 µg/mL was 70.7 ± 4.25%.

What about the viability at 0.015 µg/mL (A549 cell line; Homo sapiens, A549, 120 h, xiii) Adriamycin 15 ng/ml alone) of the same molecule?
Its viability at 0.015 µg/mL is 68 ± 5.82%.

And the viability at 0.02 µg/mL (A549 cell line; Homo sapiens, A549, 120 h, xiv) Adriamycin 20 ng/ml alone)?
The viability at 0.02 µg/mL was 78 ± 3.95%.

And the viability at 0.015 µg/mL (A549 cell line; Homo sapiens, A549, 120 h, xv) Adriamycin 15 ng/ml alone)?
Its viability at 0.015 µg/mL is 89 ± 11.9%.

What about the viability at 0.017 µg/mL (A549 cell line; Homo sapiens, A549, 120 h, xvi) Adriamycin 17 ng/ml alone) of the same molecule?
The viability at 0.017 µg/mL was 76.7 ± 5.4%.

What about the “% cell survival” value (OAW42-SR cell line) of the same molecule?
The value was 47.41 ± 1.3%.

What about the “mice surviving to the end of the experiment” value (SP2 mouse myeloma cells) of the same molecule?
Its value is “Two”.

And the “doxorubicin level in the cells” value (COR L23 R (MRP+) cells)?
The value was “less doxorubicin is found in the cells”.

What about the “doxorubicin level in the cells” value [1] of the same molecule?
The value was “high levels of doxorubicin are found in the cell”.

With Cc1ccc(C(=O)c2ccc(CC(=O)O)n2C)cc1 [Tolmetin, tolmetin] as the molecule, how does the “% cell survival” value (DLKP cell line; i) Tolmetin 6.25 μg/ml, alone or + Adriamycin 10 ng/ml) read?
The value was 104.38 ± 6.8%.

And the “% cell survival” value (DLKP cell line; i) Tolmetin 12.5 μg/ml, alone or + Adriamycin 10 ng/ml)?
Its value is 104.23 ± 6.2%.

What about the “% cell survival” value (DLKP cell line; i) Tolmetin 25 μg/ml, alone or + Adriamycin 10 ng/ml) of the same molecule?
The value was 100.49 ± 7.3%.

What about the “% cell survival” value (A549 cell line; xiv) Tolmetin 8.50 μg/ml) of the same molecule?
Its value is 91.84 ± 10.99%.

What about the “% cell survival” value (A549 cell line; xiv) Tolmetin 14.10 μg/ml) of the same molecule?
Its value is 97.59 ± 9.85%.

And the “% cell survival” value (A549 cell line; xiv) Tolmetin 24.20 μg/ml)?
The value was 99.24 ± 10.35%.

And the inhibition at 432 µM (MRP pump; 0.432 mM)?
The inhibition at 432 µM was 22%.

And the inhibition at 863 µM (MRP pump; 0.863 mM)?
The inhibition at 863 µM was 50%.

And the “% Inhibition of GST” value [2]?
The value was 55%.

And the “mice surviving to the end of the experiment” value (SP2 mouse myeloma cells)?
The value was “all but one from group 3 were dead”.

What about the “enhancement of toxicity of MRP substrates” value (MRP-specific substrates) of the same molecule?
Its value is “have been found to enhance the toxicity of MRP-specific substrates”.
